According to patent US10822586B2, “Agents and methods for treating and preventing seborrheic keratosis” (THE GENERAL HOSPITAL CORPORATION, priority 2012, dated 2020):
Entries after “also recorded” stand apart in the source; their conditions may differ. Like-named read-outs stand apart in the source and are kept apart here.

Experiments:
primary SK cells = assay: Screening for inducers of cell death in primary SK cells (SRB assay); assay type: cell-based, human; details: for SK cell death inducer activity / viability of SK cells in the screen: 500 nM; for SK cell death inducer activity / viability of SK cells in the screen / cell death in SK cells (follow-up): 24 hrs post treatment, SRB assay
Description: (§1) FIG. 2A, FIG. 2B, and FIG. 2C show data relating to the screening for small molecule inducers of cell death in primary SK cells. (FIG. 2A) 20 small molecule inhibitors (500 nM) of kinases within the MAPK-Raf and PIK3/Akt pathway were used to treat primary SK cells (in 12 well plates) harboring either FGFR3 or/and PIK3CA mutations or none. Cell death was detected 24 hrs post treatment using SRB assay. (FIG. 2B) Representative images of cells after compound treatment. (FIG. 2C) Same molecules were used on normal human keratinocytes in two different concentrations.
(§2) (FIG. 4A) SK cells were treated with two different Akt inhibitors and cell death was measured 24 hrs post treatment using SRB assay. (FIG. 4B) Akt inhibitors were profiled against the human kinome and shared targets were identified. (FIG. 4C) Cell death in SK cells after PKC inhibition. (FIG. 4D) cell death was measured in SK cells 72 hrs after transfection with control RNAi or RNAi for Akt1 and/or 2.
(§3) Due to the fragility of the primary cultures, RNAi transfection in a high throughput fashion turned out to be challenging, which prompted the use of a collection of specific small molecule kinase inhibitors to determine which kinase is essential for survival of SK cells but not of normal human keratinocytes. This level of selectivity was introduced in order to specifically target dependency caused by genomic alterations (both mutations and overexpression).
As recently reported this hyperphosphorylation is due to the docking of the compound in the ATP binding site, which prevents the Akt interaction with its downstream targets^27. As shown in FIG. 5B SK cells treated with C8 indeed have a hyperphosphorylated Akt, but importantly the Akt downstream signaling was shut down (FIG. 5C).
(§4) Small molecule kinase inhibitors usually have a high degree of specificity towards kinases in general but often these inhibitory effects are shared among several kinases, although in different doses. While this is in most of the cases considered a weakness of the approach, it can also give some evidence about other possible targets involved in the process of interest. Therefore, the inventors profiled the two effective compounds for their targets (in collaboration with Dr. N. Gray, DFCI) and determined if any other kinases might be involved in the survival of SK cells. […] In addition, the inventors were able to confirm this by down-modulation of Akt family members using an RNAi approach.

Akt = assay: Western blotting of Akt signaling in SK cells; assay type: cell-based, human
Description: (§5) (FIG. 3A) SK and normal keratinocytes were treated with C8 for 24 hrs and SRB stained. (FIG. 3B) and (FIG. 3C). SK cells were treated with C8 for 4 hrs and subjected to Western blotting for corresponding proteins.

Human SK explants = assay: Topical treatment of ex vivo human SK explants; assay type: cell-based
Description: It is now widely accepted that growth, differentiation and death of keratinocytes in culture differs in significant aspects from that in intact skin. Therefore, in order to closely reproduce the in vivo situation for SK tumors, the inventors utilized an ex vivo explant system^16 for culturing freshly excised SK lesions for up to 7 days. SK explants were treated by topical application of 1 mM of C8 for 48 hrs and stained for activated Caspase 3 to detect cell death.

SK cells = assay: Apoptosis in SK cells (cleaved PARP Western blotting, TUNEL staining); assay type: cell-based, human
Description: (§6) (FIG. 6A) SK cells were treated with the Akt inhibitor either for 24 hrs to measure levels of cleaved PARP by Western blotting or (FIG. 6B) for 48 hrs to detect TUNEL staining. (FIG. 6C) 24 hrs post treatment pro-apoptotic Akt targets were analyzed by WB.
It is well-established that activation of Akt in cells is known to elicit pro-survival effects through activation/suppression of different targeted pathways.

human kinome = assay: Profiling of Akt inhibitors against the human kinome; assay type: biochemical
Description: as §2, §4

[1] = tested on: pro-apoptotic Akt targets (FoxO1/3, MDM2, p53); assay: Western blot of pro-apoptotic Akt targets in SK cells; assay type: cell-based, human; details: 24 hrs post treatment, WB
Description: as §6
Therefore, it was investigated if any of the prominent pro-apoptotic targets of Akt were involved in this process. A decrease of phosphorylated levels of FoxO1/3 as well as of phosphorylated MDM2 was observed, which correlated with increased p53 levels upon treatment with the Akt inhibitor […].

[2] = tested on: normal human keratinocytes; assay: Cell death in normal human keratinocytes (SRB assay); assay type: cell-based; details: C8 dose-response, 24 hrs, SRB stained
Description: as §1
as §5, with “FIG. 3A, FIG. 3B, and FIG. 3C show data relating to small molecule-mediated inhibition of Akt signaling in primary SK cells. (FIG. 3A)” for “(FIG. 3A)”
as §3, with “overexpression). […]” for “overexpression).”

[3] = SK cells treated 4 hrs, Western blotting

Clc1ccc(C2(c3ccc(-c4cn[nH]c4)cc3)CCNCC2)cc1 [C9]
SK cell death inducer activity / viability of SK cells in the screen (primary SK cells): did not affect the viability
cell death in SK cells (follow-up) (primary SK cells): did not show any effects

Cc1n[nH]c2ccc(-c3cncc(OC[C@@H](N)Cc4c[nH]c5ccccc45)c3)cc12 [C8]
Akt downstream signaling (Akt; [3]): shut down
phosphorylation status of Akt at T308 and 5473 (Akt; [3]): paradoxical hyperphosphorylation
cell death in SK explants (activated Caspase 3) (Human SK explants; topical application of 1 mM for 48 hrs): significant cell death; also recorded: induction of cell death
tissue destruction in SK explants (H&E staining) (Human SK explants; topically treated with 1 mM for 48 hrs): tissue destruction
apoptosis as detected by cleaved PARP levels and TUNEL staining (SK cells; 24 hrs (cleaved PARP), 48 hrs (TUNEL)): induction of apoptosis
TUNEL staining (SK cells; SK cells, 48 hrs): positive
shared targets in kinase profiling (human kinome): only members of the Akt and PKC family were shared targets
p53 levels [1]: increased
phosphorylated MDM2 [1]: decrease
phosphorylated levels of FoxO1/3 [1]: decrease
effect on normal keratinocytes [2]: remained unaffected even at higher doses
SK cell death inducer activity / viability of SK cells in the screen (primary SK cells): very strong activity
cell death in SK cells (follow-up) (primary SK cells): dose-response killing effect

Cc1c2ccncc2c(C)c2c1[nH]c1ccccc12 [elipticine, ellipticine]
Akt signaling in SK cells (Akt): block Akt signaling
cell death in SK cells (primary SK cells; within 48 hours): induce cell death

O=c1c(O)c(-c2ccc(O)cc2)oc2cc(O)cc(O)c12 [kaempferol]
Akt signaling in SK cells (Akt): block Akt signaling
cell death in SK cells (primary SK cells; within 48 hours): induce cell death

CCn1c(-c2nonc2N)nc2c(C#CC(C)(C)O)ncc(OC[C@H]3CCCNC3)c21 [GSK690693]
shared targets in kinase profiling (human kinome): only members of the Akt and PKC family were shared targets

COc1ccc(C[C@H](N)C(=O)N[C@H]2[C@@H](O)[C@H](n3cnc4c(N(C)C)ncnc43)O[C@@H]2CO)cc1 [pyromycin, puromycin]
cell death in SK cells (primary SK cells): inducer of cell death

COc1ccc(C2=N[C@@H](c3ccc(Cl)cc3)[C@@H](c3ccc(Cl)cc3)N2C(=O)N2CCNC(=O)C2)c(OC(C)C)c1 [Nutlin-3]
cell death in SK cells (primary SK cells): induces cells death
